Values quoted from earlier work as cited in patent publication US20250214981A1, “COMPOUND AND APPLICATION THEREOF IN PREPARATION OF MEDICINE FOR TREATING ENTEROVIRUS-RELATED DISEASES” (priority 2022, published 2025).

Key:
[1] = system: human rhinovirus serotypes
[2] = system: mammalian cysteine and serine proteases, including cathepsin B, elastase, chymotrypsin, trypsin, thrombin, and calpain
[3] = in vivo

## CCOC(=O)/C=C/[C@H](C[C@@H]1CCNC1=O)NC(=O)[C@@H](CC(=O)[C@@H](NC(=O)c1cc(C)on1)C(C)C)Cc1ccc(F)cc1 [AG7088]
[1]
  antiviral activity against a variety of human rhinovirus serotypes: significant antiviral activity
[2]
  inhibitory activity against mammalian cysteine and serine proteases: negligible inhibitory activity
[3]
  bioavailability: low bioavailability
